Test results from the supplement of paper PMC8671470.

The compounds below were run on BV-173 (assay: cell viability (% survival relative to DMSO control, bortezomib = 0%); higher = less cytotoxic). Conditions: 10 nM; 72 h.
Outline: (§1)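 In 384-well plates pre-printed with compounds at 1, 10, 100, 1000 or 10000 nM, duplicate wells received cells from 10 AML and 5 CML lines at densities within the linear growth range. The plates stayed at 37 °C with 5% CO2 for 72 h before CellTiter-Glo luminescence was recorded. Each entry is averaged percent survival. Scaling placed vehicle at 100% and a 10 µM positive control at 0%.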

Compound | cell viability [%]
CC(C)c1nc(CN(C)C(=O)N[C@H](C(=O)N[C@@H](Cc2ccccc2)C[C@H](O)[C@H](Cc2ccccc2)NC(=O)OCc2cncs2)C(C)C)cs1 [Ritonavir] | 89.8
C=C(C)[C@H]1Cc2c(ccc3c2O[C@@H]2COc4cc(OC)c(OC)cc4[C@@H]2C3=O)O1 [Rotenone] | 77
Oc1ccc(Nc2nc(-c3ccc(Cl)cc3)cs2)cc1 [SKI II] | 98.3
O=C(O)c1cc(N=Nc2ccc(S(=O)(=O)Nc3ccccn3)cc2)ccc1O [Sulfasalazine] | 90.3

Same assay, conditions: 100 nM; 72 h

Compound | cell viability [%]
CCCCN1C[C@H](O)[C@@H](O)[C@H](O)[C@H]1CO [Miglustat] | 95.6
C=C(C=NNC(=N)N)NNC(=N)N [Mitoguazone] | 107
CCCCC/C=C\C/C=C\C/C=C\C/C=C\CCCCN1C(=O)C=CC1=O [N-Arachidonylmaleimide] | 97.8
CCCCCCCCCCC[C@@H](C[C@@H]1OC(=O)[C@H]1CCCCCC)OC(=O)[C@H](CC(C)C)NC=O [Orlistat] | 79.9
COc1ccc(C(=O)Nc2c(Cl)cncc2Cl)cc1OC1CCCC1 [Piclamilast] | 92.1
COc1cc(/C=C/C(=O)N2CCC=CC2=O)cc(OC)c1OC [Piperlongumine] | 101
O=C(NNc1ccccc1)c1ccncc1 [PluriSln 1] | 97
CC(C)c1nc(CN(C)C(=O)N[C@H](C(=O)N[C@@H](Cc2ccccc2)C[C@H](O)[C@H](Cc2ccccc2)NC(=O)OCc2cncs2)C(C)C)cs1 [Ritonavir] | 96
C=C(C)[C@H]1Cc2c(ccc3c2O[C@@H]2COc4cc(OC)c(OC)cc4[C@@H]2C3=O)O1 [Rotenone] | 49.9
Oc1ccc(Nc2nc(-c3ccc(Cl)cc3)cs2)cc1 [SKI II] | 96.7
O=C(O)c1cc(N=Nc2ccc(S(=O)(=O)Nc3ccccn3)cc2)ccc1O [Sulfasalazine] | 113

Same assay, conditions: 1000 nM; 72 h

Compound | cell viability [%]
CCCCN1C[C@H](O)[C@@H](O)[C@H](O)[C@H]1CO [Miglustat] | 97.8
C=C(C=NNC(=N)N)NNC(=N)N [Mitoguazone] | 71
CCCCC/C=C\C/C=C\C/C=C\C/C=C\CCCCN1C(=O)C=CC1=O [N-Arachidonylmaleimide] | 94.8
CCCCCCCCCCC[C@@H](C[C@@H]1OC(=O)[C@H]1CCCCCC)OC(=O)[C@H](CC(C)C)NC=O [Orlistat] | 87.5
COc1ccc(C(=O)Nc2c(Cl)cncc2Cl)cc1OC1CCCC1 [Piclamilast] | 114
COc1cc(/C=C/C(=O)N2CCC=CC2=O)cc(OC)c1OC [Piperlongumine] | 71.4
O=C(NNc1ccccc1)c1ccncc1 [PluriSln 1] | 104
CC(C)c1nc(CN(C)C(=O)N[C@H](C(=O)N[C@@H](Cc2ccccc2)C[C@H](O)[C@H](Cc2ccccc2)NC(=O)OCc2cncs2)C(C)C)cs1 [Ritonavir] | 85.7
C=C(C)[C@H]1Cc2c(ccc3c2O[C@@H]2COc4cc(OC)c(OC)cc4[C@@H]2C3=O)O1 [Rotenone] | 1.45
Oc1ccc(Nc2nc(-c3ccc(Cl)cc3)cs2)cc1 [SKI II] | 70.5
O=C(O)c1cc(N=Nc2ccc(S(=O)(=O)Nc3ccccn3)cc2)ccc1O [Sulfasalazine] | 99.7

Same assay, conditions: 10000 nM; 72 h

Compound | cell viability [%]
CCCCN1C[C@H](O)[C@@H](O)[C@H](O)[C@H]1CO [Miglustat] | 86.8
C=C(C=NNC(=N)N)NNC(=N)N [Mitoguazone] | 13.3
CCCCC/C=C\C/C=C\C/C=C\C/C=C\CCCCN1C(=O)C=CC1=O [N-Arachidonylmaleimide] | 96.8
CCCCCCCCCCC[C@@H](C[C@@H]1OC(=O)[C@H]1CCCCCC)OC(=O)[C@H](CC(C)C)NC=O [Orlistat] | 82
COc1ccc(C(=O)Nc2c(Cl)cncc2Cl)cc1OC1CCCC1 [Piclamilast] | 99.7
COc1cc(/C=C/C(=O)N2CCC=CC2=O)cc(OC)c1OC [Piperlongumine] | -0.383
O=C(NNc1ccccc1)c1ccncc1 [PluriSln 1] | 82.6
CC(C)c1nc(CN(C)C(=O)N[C@H](C(=O)N[C@@H](Cc2ccccc2)C[C@H](O)[C@H](Cc2ccccc2)NC(=O)OCc2cncs2)C(C)C)cs1 [Ritonavir] | 39.1
C=C(C)[C@H]1Cc2c(ccc3c2O[C@@H]2COc4cc(OC)c(OC)cc4[C@@H]2C3=O)O1 [Rotenone] | 0.515
Oc1ccc(Nc2nc(-c3ccc(Cl)cc3)cs2)cc1 [SKI II] | 0.732
O=C(O)c1cc(N=Nc2ccc(S(=O)(=O)Nc3ccccn3)cc2)ccc1O [Sulfasalazine] | 112

Each compound was assayed on HEL in the same assay as above. Conditions: 1 nM; 72 h.
Outline: as §1

Compound | cell viability [%]
CCCCN1C[C@H](O)[C@@H](O)[C@H](O)[C@H]1CO [Miglustat] | 92.6
C=C(C=NNC(=N)N)NNC(=N)N [Mitoguazone] | 103
CCCCC/C=C\C/C=C\C/C=C\C/C=C\CCCCN1C(=O)C=CC1=O [N-Arachidonylmaleimide] | 98.7
CCCCCCCCCCC[C@@H](C[C@@H]1OC(=O)[C@H]1CCCCCC)OC(=O)[C@H](CC(C)C)NC=O [Orlistat] | 102
COc1ccc(C(=O)Nc2c(Cl)cncc2Cl)cc1OC1CCCC1 [Piclamilast] | 95.3
COc1cc(/C=C/C(=O)N2CCC=CC2=O)cc(OC)c1OC [Piperlongumine] | 90.1
O=C(NNc1ccccc1)c1ccncc1 [PluriSln 1] | 95.1
CC(C)c1nc(CN(C)C(=O)N[C@H](C(=O)N[C@@H](Cc2ccccc2)C[C@H](O)[C@H](Cc2ccccc2)NC(=O)OCc2cncs2)C(C)C)cs1 [Ritonavir] | 90.8
C=C(C)[C@H]1Cc2c(ccc3c2O[C@@H]2COc4cc(OC)c(OC)cc4[C@@H]2C3=O)O1 [Rotenone] | 99.4
Oc1ccc(Nc2nc(-c3ccc(Cl)cc3)cs2)cc1 [SKI II] | 102
O=C(O)c1cc(N=Nc2ccc(S(=O)(=O)Nc3ccccn3)cc2)ccc1O [Sulfasalazine] | 111

Same assay, conditions: 10 nM; 72 h

Compound | cell viability [%]
CCCCN1C[C@H](O)[C@@H](O)[C@H](O)[C@H]1CO [Miglustat] | 103
C=C(C=NNC(=N)N)NNC(=N)N [Mitoguazone] | 108
CCCCC/C=C\C/C=C\C/C=C\C/C=C\CCCCN1C(=O)C=CC1=O [N-Arachidonylmaleimide] | 102
CCCCCCCCCCC[C@@H](C[C@@H]1OC(=O)[C@H]1CCCCCC)OC(=O)[C@H](CC(C)C)NC=O [Orlistat] | 107
COc1ccc(C(=O)Nc2c(Cl)cncc2Cl)cc1OC1CCCC1 [Piclamilast] | 108
COc1cc(/C=C/C(=O)N2CCC=CC2=O)cc(OC)c1OC [Piperlongumine] | 111
O=C(NNc1ccccc1)c1ccncc1 [PluriSln 1] | 99.2
CC(C)c1nc(CN(C)C(=O)N[C@H](C(=O)N[C@@H](Cc2ccccc2)C[C@H](O)[C@H](Cc2ccccc2)NC(=O)OCc2cncs2)C(C)C)cs1 [Ritonavir] | 99.8
C=C(C)[C@H]1Cc2c(ccc3c2O[C@@H]2COc4cc(OC)c(OC)cc4[C@@H]2C3=O)O1 [Rotenone] | 92
Oc1ccc(Nc2nc(-c3ccc(Cl)cc3)cs2)cc1 [SKI II] | 109
O=C(O)c1cc(N=Nc2ccc(S(=O)(=O)Nc3ccccn3)cc2)ccc1O [Sulfasalazine] | 91.9

Same assay, conditions: 100 nM; 72 h

Compound | cell viability [%]
CCCCN1C[C@H](O)[C@@H](O)[C@H](O)[C@H]1CO [Miglustat] | 95.2
C=C(C=NNC(=N)N)NNC(=N)N [Mitoguazone] | 97.5
